Experimental data: paper PMC7254505 (ACS Omega, 2020)
Blank lines part the entries; values can stand above or below the molecule they belong to.

Tests used:
[1] = cited from earlier work
[2] = cited from earlier work; remark: listed apart in the source
ALK2 (R206H) = biological target: T1, ALK2 (R206H) (Homo sapiens, UniProt Q04771, R206H); assay: In vitro enzyme assay; assay type: biochemical
T1 sequence (Q04771 21-509 R206H): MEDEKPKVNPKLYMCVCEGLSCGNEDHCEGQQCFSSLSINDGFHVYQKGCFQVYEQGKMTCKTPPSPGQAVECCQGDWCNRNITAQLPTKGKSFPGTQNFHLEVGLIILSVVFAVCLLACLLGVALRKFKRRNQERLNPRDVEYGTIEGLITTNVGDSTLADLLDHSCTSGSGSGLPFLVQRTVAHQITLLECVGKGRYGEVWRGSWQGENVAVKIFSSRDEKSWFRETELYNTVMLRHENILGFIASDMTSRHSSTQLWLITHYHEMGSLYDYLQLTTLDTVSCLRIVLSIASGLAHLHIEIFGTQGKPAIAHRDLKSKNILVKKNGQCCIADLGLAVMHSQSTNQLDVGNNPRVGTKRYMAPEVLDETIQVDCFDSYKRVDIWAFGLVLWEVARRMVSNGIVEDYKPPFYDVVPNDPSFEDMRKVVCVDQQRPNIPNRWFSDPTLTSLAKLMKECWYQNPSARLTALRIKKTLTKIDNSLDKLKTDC

Plasma protein binding = assay type: in vitro ADME
CYP2C9 = CYP2C9 (Homo sapiens, UniProt P11712); assay: Cytochrome P450 inhibition, CYP2C9; assay type: in vitro ADME
Partition coefficient = assay type: physicochemical
Aqueous solubility = assay type: physicochemical
CYP2D6 = CYP2D6 (Homo sapiens, UniProt P10635); assay: Cytochrome P450 inhibition, CYP2D6; assay type: in vitro ADME
CYP2C19 = CYP2C19 (Homo sapiens, UniProt P33261); assay: Cytochrome P450 inhibition, CYP2C19; assay type: in vitro ADME
CYP1A2 = biological target: T2, CYP1A2 (Homo sapiens, UniProt P05177); assay: Cytochrome P450 inhibition, CYP1A2; assay type: in vitro ADME
T2 sequence (P05177 1-516): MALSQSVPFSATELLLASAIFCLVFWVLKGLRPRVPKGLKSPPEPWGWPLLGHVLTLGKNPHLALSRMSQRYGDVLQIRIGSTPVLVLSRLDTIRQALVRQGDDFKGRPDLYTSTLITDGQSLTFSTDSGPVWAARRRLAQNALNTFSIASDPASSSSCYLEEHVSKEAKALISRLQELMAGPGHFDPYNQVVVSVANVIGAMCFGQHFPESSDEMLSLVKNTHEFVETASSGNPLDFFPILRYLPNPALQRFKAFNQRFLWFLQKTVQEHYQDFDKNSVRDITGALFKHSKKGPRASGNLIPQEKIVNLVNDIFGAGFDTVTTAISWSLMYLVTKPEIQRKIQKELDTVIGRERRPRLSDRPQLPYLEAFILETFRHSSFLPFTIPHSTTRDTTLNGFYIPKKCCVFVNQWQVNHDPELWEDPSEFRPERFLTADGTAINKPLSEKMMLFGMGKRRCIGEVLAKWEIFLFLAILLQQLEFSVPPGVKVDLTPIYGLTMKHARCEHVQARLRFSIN

CYP3A4 = CYP3A4 (Homo sapiens, UniProt P08684); assay: Cytochrome P450 inhibition, CYP3A4; assay type: in vitro ADME
HepG2 cells = assay: In vitro toxicity, HepG2 cell viability; assay type: cell-based
ALK2 over ALK5 = conditions: cited from earlier work

Sequence of CYP2C19 (P33261 whole entry): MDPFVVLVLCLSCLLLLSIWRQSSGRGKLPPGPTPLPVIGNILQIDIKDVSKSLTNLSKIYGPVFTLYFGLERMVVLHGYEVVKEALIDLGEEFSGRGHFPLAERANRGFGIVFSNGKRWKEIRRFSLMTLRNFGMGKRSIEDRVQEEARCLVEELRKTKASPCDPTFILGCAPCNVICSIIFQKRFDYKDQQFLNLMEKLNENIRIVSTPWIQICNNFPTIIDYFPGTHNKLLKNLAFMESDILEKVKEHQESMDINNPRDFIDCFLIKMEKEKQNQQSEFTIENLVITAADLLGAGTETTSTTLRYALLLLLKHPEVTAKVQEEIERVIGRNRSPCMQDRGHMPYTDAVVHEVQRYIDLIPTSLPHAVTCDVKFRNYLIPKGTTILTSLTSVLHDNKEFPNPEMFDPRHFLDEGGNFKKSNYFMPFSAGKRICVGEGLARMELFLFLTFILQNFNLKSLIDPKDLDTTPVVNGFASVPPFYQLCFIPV
Sequence of CYP2C9 (P11712 whole entry): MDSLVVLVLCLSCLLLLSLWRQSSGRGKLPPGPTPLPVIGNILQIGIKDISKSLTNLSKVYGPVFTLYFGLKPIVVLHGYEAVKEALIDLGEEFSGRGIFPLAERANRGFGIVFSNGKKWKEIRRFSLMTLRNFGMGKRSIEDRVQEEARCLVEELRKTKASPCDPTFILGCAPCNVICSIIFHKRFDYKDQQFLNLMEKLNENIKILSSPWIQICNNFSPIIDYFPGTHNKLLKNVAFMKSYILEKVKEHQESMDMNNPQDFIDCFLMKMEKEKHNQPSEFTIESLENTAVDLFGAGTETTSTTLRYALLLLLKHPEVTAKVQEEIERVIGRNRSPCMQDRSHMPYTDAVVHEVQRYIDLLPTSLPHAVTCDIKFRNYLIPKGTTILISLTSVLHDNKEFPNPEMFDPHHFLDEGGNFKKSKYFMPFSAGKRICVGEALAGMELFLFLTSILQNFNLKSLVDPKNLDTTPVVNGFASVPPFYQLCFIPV
Sequence of CYP2D6 (P10635 whole entry): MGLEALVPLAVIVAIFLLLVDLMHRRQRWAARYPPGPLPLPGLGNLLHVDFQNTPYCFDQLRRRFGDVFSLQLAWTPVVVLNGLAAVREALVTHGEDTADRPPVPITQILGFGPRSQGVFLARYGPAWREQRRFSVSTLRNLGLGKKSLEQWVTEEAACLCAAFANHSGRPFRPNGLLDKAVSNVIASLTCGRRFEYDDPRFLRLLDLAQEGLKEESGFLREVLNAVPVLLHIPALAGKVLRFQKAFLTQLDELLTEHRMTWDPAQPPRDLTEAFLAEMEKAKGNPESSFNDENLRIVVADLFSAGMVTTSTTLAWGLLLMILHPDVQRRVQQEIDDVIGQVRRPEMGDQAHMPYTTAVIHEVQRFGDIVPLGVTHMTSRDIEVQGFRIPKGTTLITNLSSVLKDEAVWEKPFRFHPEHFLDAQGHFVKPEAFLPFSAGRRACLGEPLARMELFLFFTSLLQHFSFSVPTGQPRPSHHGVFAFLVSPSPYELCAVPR
Sequence of CYP3A4 (P08684 whole entry): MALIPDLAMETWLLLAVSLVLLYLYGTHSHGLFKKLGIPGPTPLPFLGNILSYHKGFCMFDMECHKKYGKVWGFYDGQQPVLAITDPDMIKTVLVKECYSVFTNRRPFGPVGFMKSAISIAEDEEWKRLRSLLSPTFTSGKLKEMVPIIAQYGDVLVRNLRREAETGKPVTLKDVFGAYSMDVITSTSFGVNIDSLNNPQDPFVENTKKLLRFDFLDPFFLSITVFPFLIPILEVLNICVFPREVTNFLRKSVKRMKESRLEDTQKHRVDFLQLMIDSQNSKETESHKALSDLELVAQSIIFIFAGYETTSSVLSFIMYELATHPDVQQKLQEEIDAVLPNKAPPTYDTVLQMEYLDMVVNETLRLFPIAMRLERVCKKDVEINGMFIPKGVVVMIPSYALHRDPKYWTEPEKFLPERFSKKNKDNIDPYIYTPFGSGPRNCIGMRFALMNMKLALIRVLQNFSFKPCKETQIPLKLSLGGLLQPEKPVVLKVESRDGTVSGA

SMILES: c1cc(-c2cnn3cc(-c4ccc(N5CCNCC5)cc4)cnc23)c2cccnc2c1 [LDN-212854]
solubility in aqueous solutions (in words) [1]: poorly soluble
binding to serum proteins (in words) [2]: highly bound

IC50 (ALK2 (R206H)): 47.9 nM
SMILES: c1cncc(-c2n[nH]cc2-c2ccnc(Nc3ccc(N4CCNCC4)cc3)n2)c1 [Compound 1, N-[4-(Piperazin-1-yl)phenyl]-4-(3-pyridin-3-yl-1H-pyrazol-4-yl)pyrimidin-2-amine]

PPB human (%) at 10 μM (Plasma protein binding): 97.8%
CYP2C9 % inh. at 10 μM (CYP2C9): 30%
partition coefficient (log D, n-octanol/PBS, pH 7.4) (Partition coefficient): 2.26
aqueous solubility at pH 7.4 (Aqueous solubility): 10.6 μg/mL
CYP2D6 % inh. at 10 μM (CYP2D6): 30%
CYP2C19 % inh. at 10 μM (CYP2C19): 34%
CYP1A2 % inh. at 10 μM (CYP1A2): 28%
CYP3A4 % inh. at 10 μM (CYP3A4): 82%
SMILES: c1ccc2c(-c3cnn4cc(-c5ccc(N6CCNCC6)cc5)cnc34)ccnc2c1 [LDN-193189]
solubility in aqueous solutions (in words) [1]: poorly soluble
binding to serum proteins (in words) [2]: highly bound
in vitro toxicity HepG2 cell (% viability at 30 μM) (HepG2 cells): 77%

SMILES: COc1cc(-c2cc(-c3ccc(N4CCNCC4)cc3)cnc2C)cc(OC)c1OC [LDN-214117]
selectivity for ALK2 over ALK5 (ALK2 over ALK5): more than 100 fold
